According to patent US11249070B2, “Anti-cancer drug assessment method” (TOPPAN PRINTING CO., LTD., priority 2016, dated 2022):
Like-named read-outs stand apart in the source and are kept apart here.

Tests used:
HT29 [1] = conditions: oxaliplatin 100 μg/mL, bevacizumab 2 μg per well in combined use
Experimental: (§2) Furthermore, HT29 cells were used as the cancer cells.
Cell structures were produced in the same manner as in Example 5, except that HT29 cells were seeded in a Transwell cell culture insert in which a structure formed from NHDF and HUVEC was formed, centrifugation was performed to remove the liquid component, and the culture time in the CO2 incubator (37° C., 5% CO2) was changed to 24, 48, 72, or 96 hours.
(§3) After the cell structures were each dispersed in the same manner as in Example 2, and the obtained dispersions were stained with trypan blue, the number of viable cancer cells was counted to calculate CNT (%). Measurements were repeated three times for each culture condition.

HT29 [2] = conditions: oxaliplatin 100 μg/mL, bevacizumab 2 μg per well in combined use, 72 hours
From the text: as §2, §3

[3] = system: lung cancer cell line NCI-H820; assay: CNT with oxaliplatin, 2D vs 3D (Example 12); assay type: cell-based, human; conditions: for CNT (%): 72 hours, measured once
Experimental: (§1) Measurements were performed once for each culture condition.

[4] = system: gastric cancer cell line NCI-N87; assay: CNT with oxaliplatin, 2D vs 3D (Example 13); assay type: cell-based, human; conditions: for CNT (%): 72 hours, measured once
Experimental: as §1

HT29 [5] = conditions: bevacizumab 2 μg per well in the combination, 72 hours
From the text: (§4) The cell structures containing cancer cells and having a vascular network structure used herein were the cell structures produced in Example 5, and the cell culture container, culture media, and bevacizumab used herein were also the same as those used in Example 5.
(§5) After the cell structures were each dispersed in the same manner as in Example 2, and the obtained dispersions were stained with trypan blue, the number of viable cancer cells was counted to calculate CNT (%).

HCT116 = conditions: bevacizumab 2 μg per well in the combination, 72 hours
From the text: as §4, §5

HT29 [6] = assay: CNT with cetuximab and/or bevacizumab, 2D, spheroid, 3D (Example 4); assay type: cell-based, human; conditions: for CNT (%) Average value / CNT (%) Median value: cetuximab 1 mg/mL and/or bevacizumab 2 μg per well, 72 hours
From the text: Moreover, for comparison, in place of the above cell structures, structures were produced by culturing cancer cells so as to form a single layer in a general culture container (2D method), and spheroids were produced by spheroid culture of a mixture of 2×10^6 NHDF, 3×10^4 HUVEC, and 2×10^4 HT29 (spheroid method).

[7] = regardless of the oxaliplatin concentration
[8] = Spheroid, oxaliplatin 100 μg/mL

In the case of `O=C1[O][Pt]2([NH][C@@H]3CCCC[C@H]3[NH]2)[O]C1=O` [Oxaliplatin, oxaliplatin], the “CNT (%) Average value” (HT29 [1]; culture time 24 h after lamination of cancer cell layer, 72 hours) is reported as 36.0%, the “CNT (%) Average value” (HT29 [1]; culture time 48 h after lamination of cancer cell layer, 72 hours) is reported as 36.3% and the “CNT (%) Average value” (HT29 [1]; culture time 72 h after lamination of cancer cell layer) is reported as 37.0%. For the same compound, the “CNT (%) Average value” (HT29 [1]; culture time 96 h after lamination of cancer cell layer, 72 hours) was 33.8%, the “CNT (%) Average value” (HT29 [2]; HUVEC content 0.05 %, vascular network not formed) was 30.3% and the “CNT (%) Average value” (HT29 [2]; HUVEC content 0.25 %, vascular network formed) was 33.4%. The “CNT (%) Average value” (HT29 [2]; HUVEC content 0.5 %, vascular network formed) was 35.7%, the “CNT (%) Average value” (HT29 [2]; HUVEC content 1.5 %, vascular network formed) was 33.8% and the “CNT (%)” value ([3]; 2D, oxaliplatin 1 μg/mL) was 62.9%. The “CNT (%)” value ([3]; 2D, oxaliplatin 10 μg/mL) was 21.0%, the “CNT (%)” value ([3]; 3D, oxaliplatin 1 μg/mL) was 78.2% and the “CNT (%)” value ([3]; 3D, oxaliplatin 10 μg/mL) was 66.7%. For the same compound, the “drug sensitivity, cell structures compared with 2D cultures” value [3, 7] was “drug sensitivity was lower”, the “CNT (%)” value ([4]; 2D, oxaliplatin 10 μg/mL) was 22.0% and the “CNT (%)” value ([4]; 2D, oxaliplatin 100 μg/mL) was 10.3%. For the same compound, the “CNT (%)” value ([4]; 3D, oxaliplatin 10 μg/mL) was 45.9%, the “CNT (%)” value ([4]; 3D, oxaliplatin 100 μg/mL) was 17.7% and the “drug sensitivity, cell structures compared with 2D cultures” value [4, 7] was “drug sensitivity was lower”. The “CNT (%) Average value” (HT29 [5]; 2D, oxaliplatin 10 μg/mL) was 39.4%, the “CNT (%) Average value” (HT29 [5]; 2D, oxaliplatin 100 μg/mL) was 16.0% and the “CNT (%) Average value” (HT29 [5]; 3D, oxaliplatin 10 μg/mL) was 63.6%. For the same compound, the “CNT (%) Average value” (HT29 [5]; 3D, oxaliplatin 100 μg/mL) was 31.9%, the “CNT (%) Average value” (HT29 [5]; Spheroid, oxaliplatin 10 μg/mL) was 48.2% and the “CNT (%) Average value” (HT29 [5]; [8]) was 22.3%. The “CNT (%) Average value” (HCT116; 2D, oxaliplatin 10 μg/mL) was 23.8%, the “CNT (%) Average value” (HCT116; 2D, oxaliplatin 100 μg/mL) was 11.3% and the “CNT (%) Average value” (HCT116; 3D, oxaliplatin 10 μg/mL) was 54.1%. For the same compound, the “CNT (%) Average value” (HCT116; 3D, oxaliplatin 100 μg/mL) was 35.6%, the “CNT (%) Average value” (HCT116; Spheroid, oxaliplatin 10 μg/mL) was 51.8% and the “CNT (%) Average value” (HCT116; [8]) was 18.8%.
With bevacizumab the CNT (HT29 [6]; 2D cultures and spheroids) was “about 100%”, the “CNT (%) Average value” (HT29 [6]; 2D) was 93.9% and the “CNT (%) Median value” (HT29 [6]; 2D) was 99.3%. For the same compound, the “CNT (%) Average value” (HT29 [6]; 3D) was 105.2%, the “CNT (%) Median value” (HT29 [6]; 3D) was 112.7% and the “CNT (%) Average value” (HT29 [6]; Spheroid) was 108.6%. The “CNT (%) Median value” (HT29 [6]; Spheroid) was 113.8% and the CNT (HT29 [6]; cell structures of the present Example, 3D) was “about 100%”.
